Laboratory results reported in US10104891B2 (priority 2014, dated 2018).

Columns and labels:
Type in all cases: in vivo
[1] = test system: Phytophthora infestans; test: whole plant or invertebrate; conditions: for control value (Test 1): tomato late blight, control value vs untreated section; for pest or weed control at 4 µg/mL: Phytophthora infestans, in Solanum lycopersicum, 96 h, read-out: control value (Test 1)
[2] = test system: Pseudoperonospora cubensis; test: Test 2: control effect against cucumber downy mildew; conditions: control value vs untreated section; for pest or weed control at 4 µg/mL: Pseudoperonospora cubensis, 120 h
Description: (§1) A 10% wettable powder created according to the Pharmaceutical Formulation Example 1 was diluted with a Tween20 solution prepared to a concentration of 1/5000, then the compound of formula [1] was prepared to a concentration of 4 ppm. Further, the compound of formula [1] in Test 4 was adjusted to a concentration of 1,000 ppm.
<Test 2 Test of Control Effect Against Cucumber Downy Mildew>
(§2) Test suspension was applied to cucumber at the 2 leaf stage (species: Sagami hanjiro) in an amount of 20 ml per seedling. One day after application, zoospore suspension of Pseudoperonospora cubensis adjusted to a concentration of 1.0×10^4 units/ml was misted/inoculated, and the seedlings were incubated in a moist chamber adjusted to 22° C. for 16 hr. Then, the onset of the disease was induced in the chamber, and the lesion area rate on the leaves 5 days after inoculation was investigated to compute the control value using the formula below. control value={1−onset area rate of the leaves that were applied the test agent/onset area rate of untreated leaves}×100 Computational formula of the control value: […]

[3] = test system: Plasmopara viticola; test: Test 3: control effect against grape downy mildew; conditions: control value vs untreated section; for pest or weed control at 4 µg/mL: Plasmopara viticola, 120 h
Description: as §1
<Test 3 Test of Control Effect Against Grape Downy Mildew>
as §2, with “grape seedling” for “cucumber at the 2 leaf stage”, “Neomuscat)” for “Sagami hanjiro)”, “Plasmopara viticola” for “Pseudoperonospora cubensis”

Row | Compound | control value (Test 1) [1] | control value (Test 2) [2] | control value (Test 3) [3] | pest or weed control at 4 µg/mL [1] [%] | pest or weed control at 4 µg/mL [2] [%] | pest or weed control at 4 µg/mL [3] [%]
1 | CC1OC(c2csc(C3CCN(C(=O)Cn4nc(C(F)F)cc4C(F)F)CC3)n2)OCc2ccccc21 (mixture of isomers) [Compound 1-75] | 100 | 100 | 100 |  |  | 
2 | Cc1cc(C(F)(F)F)nn1CC(=O)N1CCC(c2nc(C3OCc4ccccc4CO3)cs2)CC1 [Compound 1-1] | 100 | 100 | 100 |  |  | 
3 | Cc1cc(C(F)(F)F)nn1CC(=O)N1CCC(c2nc(C3OCc4cccc(F)c4CO3)cs2)CC1 (stereo not drawn) [Compound 1-2] | 100 | 100 | 100 |  |  | 
4 | Cc1cc2c(cc1C)COC(c1csc(C3CCN(C(=O)Cn4nc(C(F)(F)F)cc4C)CC3)n1)OC2 [Compound 1-4] | 100 | 100 | 100 |  |  | 
5 | Cc1cc(C(F)(F)F)nn1CC(=O)N1CCC(c2nc(C3OCc4cc(Cl)c(Cl)cc4CO3)cs2)CC1 [Compound 1-5] | 100 | 100 | 100 |  |  | 
6 | CCS(=O)(=O)Oc1cccc2c1COC(c1csc(C3CCN(C(=O)Cn4nc(C(F)(F)F)cc4C)CC3)n1)OC2 (stereo not drawn) [Compound 1-7] | 100 | 100 | 100 |  |  | 
7 | Cc1cc(C(F)(F)F)nn1CC(=O)N1CCC(c2nc(C3OCc4ccc(OS(C)(=O)=O)cc4CO3)cs2)CC1 (stereo not drawn) [Compound 1-9] | 100 | 80 | 100 |  |  | 
8 | Cc1cc(C(F)(F)F)nn1CC(=O)N1CCC(c2nc(C3OCc4cc5ccccc5cc4CO3)cs2)CC1 [Compound 1-10, 4-[4-(1,5-dihydro-3H-2,4-naphthodioxepin-3-yl)-2-thiazolyl]-1-[2-[5-methyl-3-(trifluoromethyl)-1H-pyrazole-1-yl]acetyl]piperidine] | 100 | 100 | 100 |  |  | 
9 | Cc1cc(C(F)(F)F)nn1CC(=O)N1CCC(c2nc(C3OCc4cccc([N+](=O)[O-])c4CO3)cs2)CC1 (stereo not drawn) [Compound 1-12] | 100 | 100 | 100 |  |  | 
10 | Cc1cc(C(F)(F)F)nn1CC(=O)N1CCC(c2nc(C3OCc4cccc(OS(=O)(=O)C5CC5)c4CO3)cs2)CC1 (stereo not drawn) [Compound 1-13] | 100 | 100 | 100 |  |  | 
11 | Cc1cccc2c1COC(c1csc(C3CCN(C(=O)Cn4nc(C(F)(F)F)cc4C)CC3)n1)OC2 (stereo not drawn) [Compound 1-14] | 100 | 100 | 100 |  |  | 
12 | Cc1cc(C(F)(F)F)nn1CC(=O)N1CCC(c2nc(C3OCc4ccc(C(F)(F)F)cc4CO3)cs2)CC1 (stereo not drawn) [Compound 1-16] | 100 | 100 | 100 |  |  | 
13 | Cc1cc(C(F)(F)F)nn1CC(=O)N1CCC(c2nc(C3OCc4c(F)c(F)c(F)c(F)c4CO3)cs2)CC1 [Compound 1-17] | 100 | 100 | 100 |  |  | 
14 | Cc1cc(C(F)(F)F)nn1CC(=O)N1CCC(c2nc(C3OCc4ccccc4C(C)O3)cs2)CC1 (stereo not drawn) [Compound 1-18] | 100 | 100 | 100 |  |  | 
15 | Cc1ccc(OS(C)(=O)=O)c2c1COC(c1csc(C3CCN(C(=O)Cn4nc(C(F)(F)F)cc4C)CC3)n1)OC2 (stereo not drawn) [Compound 1-19] | 100 | 100 | 100 |  |  | 
16 | Cc1ccc2c(c1)COC(c1csc(C3CCN(C(=O)Cn4nc(C(F)(F)F)cc4C)CC3)n1)OC2 (stereo not drawn) [Compound 1-20] | 100 | 100 | 100 |  |  | 
17 | COc1ccc(Br)c2c1COC(c1csc(C3CCN(C(=O)Cn4nc(C(F)(F)F)cc4C)CC3)n1)OC2 (stereo not drawn) [Compound 1-24] | 100 | 100 | 100 |  |  | 
18 | CCCCCCCCS(=O)(=O)Oc1cccc2c1COC(c1csc(C3CCN(C(=O)Cn4nc(C(F)(F)F)cc4C)CC3)n1)OC2 (stereo not drawn) [Compound 1-25] | 100 | 100 | 100 |  |  | 
19 | COc1ccc(OS(C)(=O)=O)c2c1COC(c1csc(C3CCN(C(=O)Cn4nc(C(F)(F)F)cc4C)CC3)n1)OC2 (stereo not drawn) [Compound 1-26] | 100 | 100 | 100 |  |  | 
20 | Cc1cc(C(F)(F)F)nn1CC(=O)N1CCC(c2nc(C3OCc4ccc([N+](=O)[O-])cc4CO3)cs2)CC1 (stereo not drawn) [Compound 1-27] | 100 | 100 | 100 |  |  | 
21 | Cc1cc(C(F)(F)F)nn1CC(=O)N1CCC(c2nc(C3OCc4cccc(OS(=O)(=O)C(C)C)c4CO3)cs2)CC1 (stereo not drawn) [Compound 1-28] | 100 | 100 | 100 |  |  | 
22 | CCS(=O)(=O)Oc1ccc2c(c1)COC(c1csc(C3CCN(C(=O)Cn4nc(C(F)(F)F)cc4C)CC3)n1)OC2 (stereo not drawn) [Compound 1-29] | 100 | 90 | 100 |  |  | 
23 | Cc1cc(C(F)(F)F)nn1CC(=O)N1CCC(c2nc(C3OCc4cccc(OS(=O)(=O)CCC(F)(F)F)c4CO3)cs2)CC1 (stereo not drawn) [Compound 1-30] | 100 | 100 | 100 |  |  | 
24 | Cc1cc(C(F)(F)F)nn1CC(=O)N1CCC(c2nc(C3OCc4cc5c(cc4CO3)CCC5)cs2)CC1 [Compound 1-31] | 100 | 100 | 100 |  |  | 
25 | O=C(Cn1nc(C(F)F)cc1C(F)F)N1CCC(c2nc(C3OCc4cccc(F)c4CO3)cs2)CC1 (stereo not drawn) [Compound 1-35] | 100 | 100 | 100 |  |  | 
26 | COC(=O)Oc1cccc2c1COC(c1csc(C3CCN(C(=O)Cn4nc(C(F)(F)F)cc4C)CC3)n1)OC2 (stereo not drawn) [Compound 1-37] | 100 | 100 | 100 |  |  | 
27 | CS(=O)(=O)Oc1cccc2c1COC(c1csc(C3CCN(C(=O)Cn4nc(C(F)F)cc4C(F)F)CC3)n1)OC2 (stereo not drawn) [Compound 1-38, 4-[4-(6-methylsulfonyloxy-1,5-dihydro-3H-2,4-benzodioxepin-3-yl)-2-thiazolyl]-1-[2-[3,5-bis(difluoromethyl)-1H-pyrazole-1-yl]acetyl]piperidine] |  |  |  | 100 | 100 | 100
28 | COc1ccc(OS(C)(=O)=O)c2c1COC(c1csc(C3CCN(C(=O)Cn4nc(C(F)F)cc4C(F)F)CC3)n1)OC2 (stereo not drawn) [Compound 1-39, 4-[4-(6-methoxy-9-methylsulfonyloxy-1,5-dihydro-3H-2,4-benzodioxepin-3-yl)-2-thiazolyl]-1-[2-[3,5-bis(difluoromethyl)-1H-pyrazole-1-yl]acetyl]piperidine] |  |  |  | 100 | 100 | 100
29 | O=C(Cn1nc(C(F)(F)F)cc1C(F)(F)F)N1CCC(c2nc(C3OCc4cccc(F)c4CO3)cs2)CC1 (stereo not drawn) [Compound 1-41] | 100 | 100 | 100 |  |  | 
